Columns and labels:
[1] = system: isolated human white cells (granulocytes; monocytes + lymphocytes); experiment: In vitro cell uptake in isolated human white cells; type: cell-based; details: for selectivity for granulocytes over a mixture of monocytes/lymphocytes: approximately equivalent numbers of monocytes/lymphocytes and granulocytes present; for % uptake in Gran. (granulocytes), WHITE CELLS / % uptake in Mon. (monocytes + lymphocytes), WHITE CELLS: isolated human white cells, 30 minutes at 37° C., radiolabelled compound
Protocol: Fresh blood (30-120 ml) was anticoagulated with 1.5% ACD solution and sedimented by addition of 2 ml Hespan per 10 ml blood for 90 minutes at room temperature. The leucocyte rich platelet rich plasma supernatant was removed and centrifuged at 150 g for 5 minutes, yielding a leucocyte rich pellet and platelet rich plasma (PRP). The PRP was centrifuged at 4000 g to pellet the platelets leaving a cell free plasma (CFP). The leucocyte pellet was resuspended in a 50:50 mixture of HBSS and CFP and incubated with the radioactive compound for 30 minutes at 37° C. Free radioactive material was then removed from the cells by addition of an excess of HBSS:CFP and centrifugation of the leucocytes at 150 g for 7 minutes. The supernatant and cell pellet were taken for radioactive counting for calculation of percentage cell uptake. The distribution of radioactivity within the cell pellet was assessed by separation of the cell types using Percoll density gradient centrifugation (38%, 55% and 73% Percoll in HBSS step gradients). The residual plasma and free activity was recovered from the top of the gradient, the mononuclear cells (lymphocytes and monocytes) from the interface between 38% and 55%, and the granulocytes were recovered from the interface between 55% and 73% Percoll.

[2] = molecular target: T1, HLE (human leucocyte elastase) (Homo sapiens, UniProt P08246); experiment: Measurement of HLE inhibition potency (kinact/Ki); type: biochemical; details: measured for non-radioactive iodine-labelled compounds and unlabelled chelate conjugates
T1 sequence (P08246 30-267): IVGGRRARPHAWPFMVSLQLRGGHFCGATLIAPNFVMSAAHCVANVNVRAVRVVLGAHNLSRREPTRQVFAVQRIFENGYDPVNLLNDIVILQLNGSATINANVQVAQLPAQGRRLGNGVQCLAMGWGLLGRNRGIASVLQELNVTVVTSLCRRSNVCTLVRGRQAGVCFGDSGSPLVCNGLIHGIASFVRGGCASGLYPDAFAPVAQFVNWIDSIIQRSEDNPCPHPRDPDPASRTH
Protocol: Inhibitor potency against HLE is described by the parameter kinact/Ki as previously reported [Knight et al., Biochem., 8160-8170, (1992)]. Lyophilised enzyme was reconstituted with TrisHCl buffer, 100 mM, 0.5M NaCl at 0.05 units/ml (approximately nanomolar concentration) in a final reaction volume of 1 ml to which was added methoxysucc-ala-ala-pro-val-pNA substrate (1 mM) and the elastase inhibitor dissolved in DMSO. The reaction was monitored by detecting the change of absorbance at 410 nm (hydrolysis of the substrate releasing p-nitroaniline) over a timescale of 25 minutes. Values of kinact/Ki were estimated according to the Knight et al method.

[3] = system: mixed human red/white cells (granulocytes, monocytes + lymphocytes, erythrocytes); experiment: In vitro cell uptake in mixed human red/white cells; type: cell-based; details: radiolabelled compound
Protocol: The radioactive compound was also incubated with an isolated leucocyte preparation to which an erythrocyte fraction had been added back. The packed erythrocytes obtained after blood sedimentation were washed twice with HBSS and then resuspended in their original blood volume with HBSS. Leucocytes obtained from 30 ml blood were resuspended in 0.5 ml erythrocyte suspension and 0.5 ml CFP. The cell suspension was then incubated with compound as above. Analysis of the distribution of activity in the cell pellet in the presence of red blood cells was carried out using Ficoll-Hypaque discontinuous density gradients (densities 1.04, 1.077 and 1.119 g/ml Histopaque steps).

[4] = system: human whole blood (granulocytes, monocytes + lymphocytes, erythrocytes); experiment: In vitro cell uptake in human whole blood; type: cell-based; details: 37° C. for 1 hour, radiolabelled compound
Protocol: The radioactive compound was added to 1 ml whole blood anticoagulated with ACD and incubated at 37° C. for 1 hour. The blood was diluted with HBSS and the cellular component separated by centrifugation. Distribution of activity within the cellular pellet was assessed by separation of cell fractions on Ficoll-Hypaque gradients as above.

Row | kinact/KI ([2]; read-out: Potency (M/sec), kinact/Ki) [M⁻¹ s⁻¹] | Potency (1/(M·s)), kinact/Ki [2] [M⁻¹ s⁻¹] | Structure (SMILES) | selectivity for granulocytes over a mixture of monocytes/lymphocytes [1] | % uptake in Gran. (granulocytes), WHITE CELLS [1] [%] | % uptake in Mon. (monocytes + lymphocytes), WHITE CELLS [1] [%] | % uptake in Eryth. (erythrocytes), WHITE AND RED CELLS [3] [%] | % uptake in Gran. (granulocytes), WHITE AND RED CELLS [3] [%] | % uptake in Mon. (monocytes + lymphocytes), WHITE AND RED CELLS [3] [%] | % uptake in Eryth. (erythrocytes), WHOLE BLOOD [4] [%] | % uptake in Gran. (granulocytes), WHOLE BLOOD [4] [%] | % uptake in Mon. (monocytes + lymphocytes), WHOLE BLOOD [4] [%]
1 | 600 |  | CCC1(CC)C(=O)N(C(=O)NCCc2cc(I)c(O)c(I)c2)C1S(=O)(=O)CCOC (centres unmarked) [Compound 17, 4-(2-Methoxyethylsulfonyl)-1-[(3,5-diiodo)(4-hydroxy)phenylethylaminocarbonyl]-3,3-diethyl-2-azetidinone] | some degree of selectivity for granulocytes | 0.4 | 0.0 |  |  |  |  |  | 
2 |  | 5500 | CCC1(CC)C(=O)N(C(=O)NCCCCCC(=O)NCC(C)(CNC(C)(C)C(C)=NO)CNC(C)(C)C(C)=NO)C1Oc1ccc(C(=O)N2CCN(C)CC2)cc1 (racemic) [Compound 48, Conjugate Between Chelate, 3,3,6,9,9-pentamethyl-6-aminomethyl-4,8-diazaundecane-2,10-dionedioxime and 4-[4-[[(4-Methyl)piperazin-1-yl]carbonyl]phenoxy]-1-[(5-carboxy)pentylaminocarbonyl]-3,3-diethyl-2-azetidinone] | some degree of selectivity for granulocytes | 64.5 | 7.3 | 38.7 | 16.2 | 7.2 | 9.17 | 10.6 | 22.7
3 |  | 1400 | CCC1(CC)C(=O)N(C(=O)NCCC(=O)NCC(C)(CNC(C)(C)C(C)=NO)CNC(C)(C)C(C)=NO)C1Oc1ccc(C(=O)N2CCN(C)CC2)cc1 (racemic) [Compound 42, Conjugate Between Chelate, 3,3,6,9,9-pentamethyl-6-aminomethyl-4,8-diazaundecane-2,10-dionedioxime and 4-[4-[[(4-Methyl)piperazin-1-yl]carbonyl]phenoxy]-1-[(2-carboxy)ethylaminocarbonyl]-3,3-diethyl-2-azetidinone] | some degree of selectivity for granulocytes | 8.4 | 1.2 | 18.9 | 2.5 | 6.9 |  |  | 
4 |  | 58500 | CCC1(CC)C(=O)N(C(=O)NCc2ccc(C(=O)NCC(C)(CNC(C)(C)C(C)=NO)CNC(C)(C)C(C)=NO)cc2)C1Oc1ccc(C(=O)N2CCN(C)CC2)cc1 (racemic) [Compound 38, Conjugate Between Chelate, 3,3,6,9,9-Pentamethyl-6-aminomethyl-4,8-diazaundecane-2,10-dionedioxime and 4-[4-[[(4-Methyl)piperazin-1-yl]carbonyl]phenoxy]-1-[(4-carboxy)benzylaminocarbonyl]-3,3-diethyl-2-azetidinone] | some degree of selectivity for granulocytes | 75.5 | 8.5 | 28.4 | 32.5 | 6.7 |  |  | 
5 |  | 1350 | CCC1(CC)C(=O)N(C(=O)NCc2ccc(I)cc2)C1Oc1ccc(C(=O)N2CCN(C)CC2)cc1 (single isomer, unassigned) [Compound 4b] | some degree of selectivity for granulocytes | 4.8 | 0.9 | 1.6 | 3.3 | 3.8 |  |  | 
